US20190117675A1, “Compositions And Methods To Treat And/Or Prevent Vision Disorders Of The Lens Of The Eye” (Helix Holding Company, priority 2014, published 2019)

Legend:
[1] = test system: various cataract-causing crystallin mutants; assay: Aggresome / intracellular aggregate formation of crystallin mutants in transfected cells (confocal microscopy); format: cell-based; conditions: 0-40 μM sterols in 2% DMSO, 2 h treatment then 12 h culture; lanosterol effect dose-dependent
Procedure: The effect of lanosterol or cholesterol on the aggresome formation of various crystallins was studied by transfecting the cells using plasmids containing various crystallin genes. The cells were cultivated for 24 h to enable efficient protein expression and aggresome formation. Then the cells were treated with 0-40 μM sterols in 2% DMSO. The cells treated with 2% DMSO were used as the control. After treatment for 2 h, the cells were moved to fresh DMEM medium containing 10% fetal bovine serum and further cultivated for 12 h. Then the cells were used for microscopy analysis.
The microscopy samples were prepared by washing the slips by phosphate buffered saline (PBS) three times. The cells were fixed with 4% paraformaldehyde for 40 min followed by three times washing with PBS. The cells were permeabilized with 0.1% Triton X-100 (Sigma) in PBS for 10 min and blocked with 5% normal goat serum in PBS for 1 h at 37° C. Immunostaining was carried out by adding mouse anti-Flag antibody (1:500) or anti-p62 antibody (1:200) in PBS buffer containing 5% normal goat serum and cultivated for 1 h at 37° C. Then the slips were washed three times with PBS, and further incubated with Alexa 649-conjugated goat anti-mouse IgG (1:250) for 1 h at ambient temperature. The nuclei were counterstained with Hoechst 33342. The mounted cells were analyzed using a Carl Zeiss LSM 710 confocal microscope.

dog eyes with cataracts = assay: Treatment of cataract lenses in dogs; format: in vivo; conditions: dog eyes treated with lanosterol for 6 weeks (intravitreal nanoparticles plus eye drops three times daily)
Procedure: Grading System of Dog Cataract • Grade 0: absence of opacification (no cataract); • Grade 1: a slight degree of opacification (incipient stage); • Grade 2: presence of diffuse opacification involving almost the entire lens (immature stage); • Grade 3: presence of extensive thick opacification involving the entire lens (mature stage)
To assess the effect of lanosterol treatment on cataract in live animals, left eye of dogs with bilateral cataract were treated for topical eye drops. The right eye of each animal was administered one drop of vehicle, 3 times a day so that the drop coated the eye. One drop of lanosterol was administered to the left eye of each animal in the same manner. Both eyes of some control animals were treated for vehicle. […] Each lens was recorded by photography. Degree of cataract was assessed using AREDS cataract grading system.
This study was approved by TACUC of Zhongshan Ophthalmic Center and West China Hospital. […] Degree of cataract was assessed by a blinded examiner and scored based on canine cataract stage, shown below. Improvements in lens clarity and transparency were quantified. […]
The mixture solution was then stirred for 2 h to allow the nanoparticles to form and the acetonitrile to evaporate. […] The loading yield of lanosterol was quantified by high performance liquid chromatography.

CC(C)=CCC[C@@H](C)[C@H]1CC[C@@]2(C)C3=C(CC[C@]12C)[C@@]1(C)CC[C@H](O)C(C)(C)[C@@H]1CC3 [Lanosterol]
intracellular aggregation of various cataract-causing crystallin mutants [1]: significantly reduced intracellular aggregation
cataract severity and lens clarity (dog eyes with cataracts): reduced cataract severity and increased lens clarity
